# Measurements as given in article PMC11303563 (Communications Medicine, 2024).
# Values joined by “and” are separate entries in the source; they are usually repeats but may differ in a detail not shown here. Identical values can stand only once.
# What was measured:
# [1] = In vitro blood-brain barrier permeability assay (BBB kit RBT-24H); assay type: in vitro ADME, rat
# Description: Therefore, we tested BBB transparency in vitro using the BBB kit RBT-24H (PharmaCo-Cell)[35]. […] Blood-brain barrier permeability assay The blood-brain barrier (BBB) transparency of TH analogs was assessed in vitro using RBT-24H (PharmaCo-Cell)[5] according to the manufacturer 's protocol. […] After 30 min, the assay buffer in the wells mimicking the abluminal side was collected, and the concentration of the compounds was measured using liquid chromatography-mass spectrometry (LC-MS). […] These tips were preconditioned with 20 μL of acetonitrile and 20 μL of 0.1% TFA in purified water. 100 μL of the samples were loaded onto the preconditioned tips, washed with 200 μL of DW, and then eluted with 10 μL of acetonitrile. Triazine (1% vol/vol) was added to the eluent as an internal standard. […] 3 μm; Imtakt, Kyoto, Japan). All the experiments were performed using an Ultimate 3000 UHPLC system coupled with a Q Exactive Plus Orbitrap mass spectrometer (Thermo Fisher Scientific). […] Data were shown as mean ± standard deviation (n=3).
# [2] = test system: THRβ; details: cited from earlier work
# [3] = test system: high-fat diet (HFD)-induced obesity model mice; test: Body weight of high-fat diet-induced obesity model mice; assay type: in vivo, C57BL/6J mice; design: Body weight, Mean Diff. ND vs. treated: unit not given here; details: for Body weight, 95.00% CI of diff. ND vs. treated / Body weight, Mean Diff. ND vs. treated: ND group as comparator; for Body weight, 95.00% CI of diff. ND vs. treated / Body weight, Mean Diff. ND vs. treated / Body weight, 95.00% CI of diff. Vehicle vs. treated / Body weight, Mean Diff. Vehicle vs. treated: Tukey's multiple comparisons test; for Body weight, Mean Diff. Vehicle vs. treated / Body weight, group mean (Fig. 3a) / Body weight, individual mice (Fig. 3a): in g (unit assumed); for Body weight, group mean (Fig. 3a): n 10
# Description: The injection was given 6 h after light on. Food consumption and body weights were measured weekly. Food and water were provided to the animals ad libitum. The animals were treated according to the guidelines of Nagoya University, and all experimental procedures were approved by the Animal Experiment Committee of Nagoya University (A210715-003).
# (§1) Epididymal adipose tissue was weighed.
# (§2) Fig. 3 Effects of intraperitoneal injection of TH analogs on body weight and deposition of visceral fat. […] After three weeks of injection, body weight (a), and weight of the epididymal adipose tissue (b) were measured.
# [4] = test system: high-fat diet (HFD)-induced obesity model mice; test: Serum lipid analysis (total cholesterol, triglycerides) in HFD mice; assay type: in vivo, C57BL/6J mice; design: Serum TC (Fig. 4a), individual mouse values / Serum TG (Fig. 4b), individual mouse values / Serum TC (Fig. 4a), Mean Diff. ND vs. treatment (Tukey) / Serum TC (Fig. 4a), Mean Diff. Vehicle vs. treatment (Tukey) / Serum TC (Fig. 4a), group mean (Mean 2) / Mean Diff., ND vs. treated (Fig. 4b) / Mean Diff., Vehicle vs. treated (Fig. 4b) / Mean (Fig. 4b): unit not given here; details: for Serum TC (Fig. 4a), group mean (Mean 2) / Mean (Fig. 4b): n=10; for Serum TC (Fig. 4a), Mean Diff. ND vs. treatment (Tukey): ND minus treated; for Serum TC (Fig. 4a), Mean Diff. Vehicle vs. treatment (Tukey): Vehicle minus treated; for Mean Diff., ND vs. treated (Fig. 4b) / Mean Diff., Vehicle vs. treated (Fig. 4b): Tukey's multiple comparisons test; for Mean (Fig. 4b): group mean
# Description: Fig. 4 Effects of TH analogs on the accumulation of lipids in mice. […] After 3 weeks of injection, serum and liver tissues were collected, and the amount of serum cholesterol (a), serum triglycerides (b), liver cholesterol (c), liver triglycerides (d), and liver total lipids (e) were measured.
# [5] = test system: THR-regulated genes and lipid metabolism-related genes in the liver
# [6] = test system: high-fat diet (HFD)-induced obesity model mice; test: Weight of epididymal adipose tissue (visceral fat) in HFD mice; assay type: in vivo, C57BL/6J mice; details: for Fig. 3b (weight of epididymal adipose tissue), group mean (Mean 2): n=10; for Fig. 3b (weight of epididymal adipose tissue), group mean (Mean 2) / Fig. 3b (weight of epididymal adipose tissue), Mean Diff. ND vs. treatment (Tukey) / Fig. 3b (weight of epididymal adipose tissue), Mean Diff. Vehicle vs. treatment (Tukey) / Epididymal adipose weight, individual mice (Fig. 3b): in mg (unit assumed); for Fig. 3b (weight of epididymal adipose tissue), Mean Diff. ND vs. treatment (Tukey): ND minus treated; for Fig. 3b (weight of epididymal adipose tissue), Mean Diff. Vehicle vs. treatment (Tukey): Vehicle minus treated
# Description: as §1, §2
# [7] = HFD mice, i.p., dose not given (0.1 or 1 µmol/kg day), 3 weeks
# [8] = HFD mice, 1 μmol/kg day, RT-qPCR, reference gene Rps18
# [9] = liver gene expression, 1µmol dose group vs. Vehicle
compound,measurement,setting,value
Cn1c(=O)c2c(ncn2C)n(C)c1=O [Caffeine],Abluminal concentration,"[1]; 10 µM on luminal side, 30 min, mean ± standard deviation (n=3)",0.504 ± 0.0551 µM
same,"Papp at 30 min, 10 µM","[1]; rat, 10 μM on luminal side, read-out: apparent permeability (Papp)",76.4 ± 8.35 ×10⁻⁶ cm/s
Cc1cc(OCC(=O)O)cc(C)c1Cc1ccc(O)c(Cc2ccccc2)c1 [GC-24],selectivity for THRβ against THRα compared with GC-1,[2],ten-fold greater selectivity
"N[C@@H](Cc1cc(I)c(Oc2ccc(O)c(I)c2)c(I)c1)C(=O)O [T3, triiodothyronine]","Body weight, 95.00% CI of diff. ND vs. treated",[3]; 0.1 µmol dose group,-15.17 to -6.458
same,"Body weight, Mean Diff. ND vs. treated",[3]; 0.1 µmol dose group,-10.81
same,"Body weight, 95.00% CI of diff. Vehicle vs. treated",[3]; 0.1 µmol dose group,-0.6376 to 7.800
same,"Body weight, Mean Diff. Vehicle vs. treated",[3]; 0.1 µmol dose group,3.581
same,"Body weight, 95.00% CI of diff. ND vs. treated",[3]; 1 µmol dose group,-10.58 to -1.870
same,"Body weight, Mean Diff. ND vs. treated",[3]; 1 µmol dose group,-6.225
same,"Body weight, 95.00% CI of diff. Vehicle vs. treated",[3]; 1 µmol dose group,3.950 to 12.39
same,"Body weight, Mean Diff. Vehicle vs. treated",[3]; 1 µmol dose group,8.169
same,"Body weight, group mean (Fig. 3a)","[3]; HFD mice, 0.1 µmol dose group",39.33
same,"Body weight, individual mice (Fig. 3a)","[3]; HFD mice, 0.1 µmol dose group",37.99 and 36.19 and 32.32 and 43.27 and 39.51 and 44.21 and 39.97 and 39.21 and 40.58 and 40.07
same,"Body weight, group mean (Fig. 3a)","[3]; HFD mice, 1 µmol dose group",34.74
same,"Body weight, individual mice (Fig. 3a)","[3]; HFD mice, 1 µmol dose group",29.82 and 33.07 and 30.29 and 38.87 and 37.72 and 35.76 and 37.12 and 36.01 and 34.61 and 34.17
same,body weight vs vehicle (in words),"[3]; HFD mice, i.p. 0.1 µmol/kg day, 3 weeks",did not significantly reduce body weight
same,decrease of body weight compared to vehicle,"[3]; HFD mice, i.p. 1 µmol/kg day, 3 weeks",~ 20%
same,"Serum TC (Fig. 4a), individual mouse values","[4]; 0.1 µmol, HFD mice",158.333 and 124.25 and 113.833 and 130.625 and 129.792 and 168.458 and 110 and 105.208 and 104.375 and 153.458
same,"Serum TG (Fig. 4b), individual mouse values","[4]; 0.1 µmol, HFD mice",79.667 and 70.5 and 70.583 and 116.333 and 98 and 97.167 and 90.5 and 123.833 and 87.167 and 118.833
same,"Serum TC (Fig. 4a), group mean (Mean 2)","[4]; 0.1 µmol, HFD mice",129.8
same,"Serum TC (Fig. 4a), Mean Diff. ND vs. treatment (Tukey)",[4]; 0.1 µmol,49.59
same,"Serum TC (Fig. 4a), Mean Diff. Vehicle vs. treatment (Tukey)",[4]; 0.1 µmol,120.2
same,"Serum TC (Fig. 4a), individual mouse values","[4]; 1 µmol, HFD mice",78.333 and 92.5833 and 95.917 and 94.792 and 93.958 and 110.125 and 81.667 and 92.708 and 91.875 and 83.875
same,"Serum TG (Fig. 4b), individual mouse values","[4]; 1 µmol, HFD mice",109.75 and 118.917 and 137.25 and 189.75 and 144.75 and 162.25 and 110.583 and 122.25 and 108.917 and 100.583
same,"Serum TC (Fig. 4a), group mean (Mean 2)","[4]; 1 µmol, HFD mice",91.58
same,"Serum TC (Fig. 4a), Mean Diff. ND vs. treatment (Tukey)",[4]; 1 µmol,87.84
same,"Serum TC (Fig. 4a), Mean Diff. Vehicle vs. treatment (Tukey)",[4]; 1 µmol,158.5
same,"Mean Diff., ND vs. treated (Fig. 4b)",[4]; ND minus 0.1 µmol group,51.51
same,"Mean Diff., ND vs. treated (Fig. 4b)",[4]; ND minus 1 µmol group,16.27
same,"Mean Diff., Vehicle vs. treated (Fig. 4b)",[4]; Vehicle minus 0.1 µmol group,20.52
same,"Mean Diff., Vehicle vs. treated (Fig. 4b)",[4]; Vehicle minus 1 µmol group,-14.72
same,Mean (Fig. 4b),"[4]; 0.1 µmol, HFD mice",95.26
same,Mean (Fig. 4b),"[4]; 1 µmol, HFD mice",130.5
same,serum triglyceride level vs vehicle,[4]; [7],no significant difference
same,"Dio1 expression in the liver, individual animal values","[5]; 1µmol, one value per animal",3.359 and 3.177 and 2.594 and 3.891 and 4.465 and 3.761 and 2.009 and 5.092 and 4.047 and 3.355
same,"Ldlr expression in the liver, individual animal values","[5]; 1µmol, one value per animal",0.07802 and 0.2909 and 0.1661 and 1.188 and 1.197 and 0.8436 and 2.271 and 0.5624 and 0.08829 and 0.1717
same,"Me1 expression in the liver, individual animal values","[5]; 1µmol, one value per animal",1.618 and 1.709 and 1.627 and 3.524 and 2.735 and 3.173 and 4.935 and 5.075 and 3.984 and 2.564
same,"Pnpla2 expression in the liver, individual animal values","[5]; 1µmol, one value per animal",0.3078 and 2.165 and 2.21 and 1.997 and 2.671 and 3.066 and 2.607 and 3.3336 and 0.6308 and 1.108
same,"Srebp1c expression in the liver, individual animal values","[5]; 1µmol, one value per animal",0.06015 and 0.2255 and 0.1838 and 0.1704 and 0.1322 and 0.09864 and 0.3225 and 0.5342 and 0.08549 and 0.1455
same,"Thrsp expression in the liver, individual animal values","[5]; 1µmol, one value per animal",1.539 and 1.364 and 0.6114 and 1.153 and 1.565 and 1.274 and 1.191 and 0.8905 and 1.332 and 1.012
same,liver expression of Dio1 vs vehicle,[5]; [8],significantly upregulated
same,liver expression of Ldlr vs vehicle,[5]; [8],not significantly different
same,liver expression of Me1 vs vehicle,[5]; [8],significantly upregulated
same,liver expression of Srebp1c vs vehicle,[5]; [8],significantly lower
same,liver expression of Thrsp vs vehicle,[5]; [8],no significant difference
same,"Pnpla2, Dunn's multiple comparisons test, Mean rank diff. (Vehicle vs. compound)",[5]; [9],-12.5
same,"Srebp1c, Dunn's multiple comparisons test, Mean rank diff. (Vehicle vs. compound)",[5]; [9],17.87
same,"Pnpla2, Mean rank of treatment group (Mean rank 2)","[5]; liver gene expression, 1µmol dose group, Vehicle mean rank 8",20.5
same,"Srebp1c, Mean rank of treatment group (Mean rank 2)","[5]; liver gene expression, 1µmol dose group, Vehicle mean rank […]",15.8
same,"Fig. 3b (weight of epididymal adipose tissue), group mean (Mean 2)","[6]; 0.1 µmol, HFD mice",1763
same,"Fig. 3b (weight of epididymal adipose tissue), Mean Diff. ND vs. treatment (Tukey)",[6]; 0.1 µmol,-1079
same,"Fig. 3b (weight of epididymal adipose tissue), Mean Diff. Vehicle vs. treatment (Tukey)",[6]; 0.1 µmol,1095
same,"Fig. 3b (weight of epididymal adipose tissue), group mean (Mean 2)","[6]; 1 µmol, HFD mice",1015
same,"Fig. 3b (weight of epididymal adipose tissue), Mean Diff. ND vs. treatment (Tukey)",[6]; 1 µmol,-331.6
same,"Fig. 3b (weight of epididymal adipose tissue), Mean Diff. Vehicle vs. treatment (Tukey)",[6]; 1 µmol,1843
same,"Epididymal adipose weight, individual mice (Fig. 3b)","[6]; HFD mice, 0.1 µmol dose group",1857.6 and 1829.3 and 1453.2 and 1516.6 and 740.6 and 1685.1 and 1862.2 and 1976.4 and 2365.6 and 2339.7
same,"Epididymal adipose weight, individual mice (Fig. 3b)","[6]; HFD mice, 1 µmol dose group",781.7 and 1090.4 and 983.4 and 966.1 and 975.7 and 1007.4 and 1167.4 and 1184.7 and 1023.2 and 969.5
same,weight of the epididymal adipose tissue vs vehicle,[6]; [7],decreased significantly
